Experimental findings from patent US20200384079A1, “Compositions of Fibroblast Growth Factor LIgands and Methods of Treating Patients Undergoing Ischemia-Reperfusion Therapy” (University of Cincinnati, priority 2017, published 2020) are described below.

A word on the Kd: it is the equilibrium constant for the complex coming apart. High values mean weaker binding, low ones tighter binding.

Data set [1] addresses FGFR3c ectodomain (extracellular ligand binding domain of FGFR3c) (UniProt P22607). The data set is described as follows: ITC; FGF1^ΔHBS injected into FGFR3c ectodomain in the cell.
Data set [2] has as its system in vivo rat model of myocardial infarction. The data set is described as follows: In vivo rat ischemia-reperfusion model, infarct size (TTC). More on the design: species or system Sprague Dawley rats. Conditions: for effect on infarct size / cardioprotection (in words): FGF given at reperfusion with heparin co-therapy; for reduction in infarct size compared to saline/vehicle control: given i.v. at reperfusion alone (FGF 10 μg/kg; heparin 12 U/kg/hr); for effect on infarct size (in words): given at reperfusion, no heparin co-therapy. On the procedure:
CVR-2016-799R1 signaling and the other two sets were to evaluate the pharmacokinetic properties of native FGF1 and modified FGF1 (FGF1^ΔHBS). The first set of experiments was for the ischemia/reperfusion study in which animals were divided into six groups as follows: (1) saline group: saline treatment given intravenously for 10 minutes immediately upon reperfusion, (2) heparin group: heparin, 60 U/kg intravenous (i.v.) bolus, given immediately at reperfusion+12 U/kg/hr i.v. infusion for 120 minutes of reperfusion, (3) FGF1 group: FGF1, 10 μg/kg i.v. infusion, given for 10 minutes immediately at reperfusion, (4) FGF1+heparin: heparin, 60 U/kg bolus, given immediately upon reperfusion followed by FGF1, 10 μg/kg i.v. infusion, given for 10 minutes and 12 U/kg/hr i.v. infusion given for 110 minutes of reperfusion, (5) modified FGF1 (FGF1^ΔHBS) group: FGF1^ΔHBS, 10 μg/kg i.v. infusion, given for 10 minutes, or (6) FGF1^ΔHBS+heparin: heparin, 60 U/kg bolus, given immediately at reperfusion followed by FGF1^ΔHBS, 10 μg/kg i.v. infusion, given for 10 minutes and 12 U/kg/hr i.v. infusion for 110 minutes of reperfusion. All rats were subjected to 30 minutes of regional ischemia and 120 minutes of reperfusion. Drugs were administered at the onset of reperfusion via the jugular vein (FIG. 2A). […] A total of ninety-six rats was completed for the I/R study. Sample size for each group ranged from 9-16 depending on the power analysis. A total of thirty-five rats were excluded from the study based on the lack of cyanosis of the heart or typical elevation of the ST segment in the electrocardiogram during ischemia, and death from malignant arrhythmia. For the biodistribution or FGF1 signaling study, rats were randomly divided into six groups as described above (FIG. 2B). Following drug treatment (immediately following 15 minutes of treatment or 105 minutes post-treatment at the point which mimics the length of time of reperfusion), solid organs and blood (see sections “Tissue collection for exogenous FGF1 biodistribution” and “Cardiac preparation to detect the activation of FGF1 downstream molecules”) were collected. A total of 33 rats were used for biodistribution and FGF1 signaling studies, and 3 rats were excluded due to anesthetic overdose. Also, a total of 8 plasma samples were excluded because of hemolysis. For elimination half-life of native FGF1 and FGF1^ΔHBS, 12 rats were randomly divided into two groups and treated intraperitoneally with either FGF1 form as described in the section “Pharmacokinetic evaluation of exogenous FGF1 or FGF1^ΔHBS ”.
The in vivo I/R model was established by ligating and loosening the left anterior CVR-2016-799R1 descending artery (LAD) previously described by our laboratory. In brief, rats were anesthetized with thiobutabarbital sodium salt hydrate, Inactin® hydrate (100 mg/kg, i.p., Sigma-Aldrich), and intubated and artificially ventilated via a rodent respirator (respiratory rate: 75 strokes/minute; tidal volume: 3 mL; Model 683, Harvard, USA). The heart was exposed through a left thoracotomy and pericardiotomy, and a 6-0 silk suture was placed around the left anterior descending (LAD) coronary artery. After equilibration for 15 minutes, hearts were subjected to 30 minutes of ischemia by ligating the LAD via a snare occluder and reperfusion occurred for 120 minute via loosening the snare occluder. The appearance of cyanosis of the heart and significant ST-segment elevation in the electrocardiogram were used to verify successful ligation.
At the end of the ischemia-reperfusion injury study, the LAD was re-occluded with the suture used previously for the establishment of ischemia. 5% Evans blue dye solution was given via the jugular vein to define the area-at-risk (AAR). Then, the heart was arrested in diastole with 1 mL of 15% potassium chloride, and the animal was euthanized with an anesthetic overdose followed by a bilateral pneumothorax for removal of the heart. […]

For data set [3] the test system is unchanged. Conditions: rat; for post-ischemic cardiac function (in words): given at reperfusion, no heparin co-therapy.
The nature of data set [4]: Blood clotting time (tail nick). The format is in vivo, rat. Conditions: for Clotting time: 15 mins post treatment, single agent. The procedure: In sets of experiments, blood clotting time was detected at baseline and 15 minutes after drug treatment. In brief, a nick 1-2 mm depth was made at 5 cm and 3 cm of the proximal tail for baseline and post-drug blood clotting time, respectively; the tail nick was blotted with 4×4 gauze every 15 seconds until bleeding totally stopped, and blood clotting time was recorded from the onset of bleeding until it stopped.
Heparan sulfate proteoglycans or heparin regulates the bioavailability of FGFs. In order to develop a “cardioprotective” FGF as a therapeutic against ischemic heart disease, it was necessary to elucidate the efficacy of these cardiac FGFs in the presence of heparin treatment. Therefore, native rhFGFs (FGF 1, 2, 4, or 5) or vehicle are infused intravenously (at dose indicated above) in conjunction with unfractionated (12 units/kg/hr, i.v.) or low molecular weight heparin (enoxaparin 1 mg·kg, s.c.) during the first 15 minutes of reperfusion (FIG. 12A), and post-ischemic recovery of cardiac function and the degree of myocardial infarction is assessed. […] Unfractionated or low molecular weight heparin is administered alone during early reperfusion to elucidate the cardioprotective effects of heparins against IR injury. Whether FGF administration alters heparin activity is evaluated. To assess this potential interaction, activated clotting time (ACT) is assessed in vehicle-treated or FGF-treated groups in the absence or presence of heparin co-administration. Baseline and 15 minute post-drug treatment ACT is determined. It has been established that a heparin response occurs within 1 minute after an intravenous dose in humans and that no more time is required to achieve a predicted ACT.

Another data set has as its system wildtype mouse hearts. The data set is described as follows: Ex vivo model, low-flow ischemia and reperfusion. Conditions: treatment at reperfusion, mouse hearts. The source says:
FIGS. 12A-12B. […] Left bar is vehicle-treated and right bar is FGF2-treated wildtype mouse hearts.

Another data set has as its system trypsin. The data set is described as follows: Susceptibility to proteolytic degradation by trypsin (fluorescence emission). It is filed as in vitro ADME. On the procedure:
Ligand bioavailability (i.e., pharmacokinetic mechanism) can be a significant pharmacological limitation for therapeutic applicability. […] Susceptibility to protease action of FGF1^ΔTS was determined by monitoring changes in fluorescence emission during degradation by trypsin, FGF1^ΔTS (20-fold increase) and FGF2 (7-fold increase) were more resistant to proteolytic degradation than the native FGF1. It remained to be elucidated as to whether these pharmacokinetic mechanisms I.e., bioavailability and/or half-life) were enhanced in vivo as well. Therefore, detection of the bioavailability and half-life of native and thermally stable mutated ligands (FGF^ΔTS) are carried out as follows: […]

The conditions of data set [5]: rat, i.v.
In a further data set the test system is ERK1/2. The data set is described as follows: ERK1/2 activation (phosphorylation) in left ventricle, immunoblot. The format is in vivo, rat. As to conditions: immediately post-treatment, no FGF+heparin co-treatment. The procedure:
Hearts from rats treated with saline, native FGF1 or FGF1^ΔHBS in the presence or absence of heparin were collected immediately after administration and at 120 minutes post-treatment for evaluation of downstream signaling. One-half of each snap-frozen heart was powdered and homogenized in protein extraction buffer as previously described by our laboratory. For FGFR1, 150 μg of total protein were loaded onto a 8% SDS-PAGE gel, for ERK1/2 activation, 20 μg of whole cell protein homogenate was loaded onto a 15% SDS-PAGE gel, and for PKCα and PKCδ, […] of whole cell protein homogenate was loaded onto a 10% SDS-PAGE gel and then transferred to nitrocellulose membrane. 0.1% Ponceau S in 5% acetic acid was used to examine the transfer efficiency and loading equality as described previously 43. Membranes were blocked with 5% dry milk and then incubated with primary antibody against phospho-FGFR1 (Y-654, 1:500, Cell Signaling), phospho-ERK1/2 (1:1000, Cell Signaling) or phospho-PKCα (1:500, Santa Cruz) or phospho-PKCδ (1:500, Santa Cruz) followed by incubation with HRP-conjugated secondary goat anti-rabbit antibody (1:3000, Santa Cruz Biotechnology). Membranes were stripped and reprobed with antibodies against total FGFR1 (1:500, Cell Signaling), total ERK (1:1000, BD Transduction Labs) or total PKCα (1:500, Santa Cruz) or PKCδ (1:500, Santa Cruz). Bound antibodies were visualized by ECL system. Activation is indicated as a ratio of phosphorylated protein/total protein. β-actin (1:1000, Cell Signaling) was also used as a loading control.
Construction of his-tagged native and heparin-binding modified rhFGFs as well as their expression and purification is performed as previously described using his-tagged expression vectors and nickel-nitrilotriacetic acid resin columns. […] His-tagged FGFs are detected in solid organs by ELISA (FIG. 14) both for FGF and histidine (data not shown), and immunoprecipitation (IP) followed by immunoblot and in plasma by ELISA as described previously. His-tags are widely used because they are small and rarely interfere with function, activity, or structure of target proteins. […] There is no observed difference in total ERK or FGFR1 expression between the treatment groups.
A general note: A western blot detects proteins with antibodies after separation by electrophoresis.

The target of data set [6] is FGFR3c ectodomain (extracellular ligand binding domain of FGFR3c) (UniProt P22607). The data set is described as follows: ITC; FGF1 injected into FGFR3c ectodomain in the cell. (In general: Isothermal titration calorimetry measures the heat released or taken up as one component is titrated into another.)
Where [7] appears, read: rat, 30 min ischemia/120 min reperfusion, given i.v. at reperfusion alone (FGF 10 μg/kg; heparin 60 U/kg bolus + 12 U/kg/hr).

“Also recorded” adds a separate entry of the source. Like-named read-outs stand apart in the source and are kept apart here.

Substance “FGF1^ΔHBS (FGF1 carrying the K127D/K128Q/K133V triple mutation in its HS-binding site) (from UniProt P05230 1-155) (ligand)” displayed a Kd in [1] of 432 nM.
With “FGF2: native recombinant human fibroblast growth factor 2”, the figures for the “infarct size (% infarct, percentage of area-at-risk)” value in data set [2] (as E6 but FGF 10 μg/kg i.v. in the presence of heparin co-administration) and in data set [2] (setting [7]) were 46% and 26%, respectively. The “effect on infarct size / cardioprotection (in words)” value is given as “significantly inhibited FGF2's reduction in infarct size” in data set [2] (rat) and “significantly inhibited rhFGF2-induced cardioprotection against MI” in [2] (rat, listed as rhFGF2). Besides, the “reduction in infarct size compared to saline/vehicle control” value in data set [2] (rat) is recorded as 57%; in data set [2] (rat, listed as RhFGF2) it was 70%. Further, in [3] (FGF2 at reperfusion), the “recovery of left ventricular (LV) developed pressure, % of baseline” value turned out to be 68%. The “post-ischemic cardiac function (in words)” value in [3] is listed as “protects the heart from cardiac dysfunction; also recorded: improved relaxation compared to saline treatment”. The Clotting time in data set [4] is recorded as 15 mins post rhFGF2 treatment: 192 +/− 120 sec (n = 5). Also, the “cardioprotection in ex vivo model (in words)” value with wildtype mouse hearts is “protects the heart from post-ischemic cardiac dysfunction and myocardial infarction”. Moreover, the “increase in proteolytic resistance compared to native FGF1” value in the data set with trypsin is 7 fold. Also, the “tissue and plasma FGF distribution (in words)” value in data set [5] (FGF with heparin co-administration) is given as “no longer targeted to the heart”; in data set [5] (no FGF+heparin co-treatment) it was “increased biodistribution heart (left ventricle)”; in [5] (no FGF+heparin co-treatment, listed as native FGF2), “significantly targeted to the heart”.
Regarding Heparin sodium [reference compound], in [2] (setting [7]), the “infarct size (% infarct, percentage of area-at-risk)” value came out at 46%. In addition, the “effect on infarct size (in words)” value is given as “lowered infarct size but not to the degree of FGF2 treatment; also recorded: significantly reduced infarct size compared to saline” in data set [2] (rat) and “reduced infarct size somewhat, but not to the degree of FGF2 treatment” in data set [2] (rat, listed as Heparin). Moreover, the “reduction in infarct size compared to saline/vehicle control” value in [2] (rat) was determined as 31%. In addition, the “post-ischemic cardiac function (in words)” value in data set [3] was “no significant difference in post-ischemic contractility between the saline and heparin group”. In data set [4], the Clotting time was 15 mins post-heparin treatment: 737 +/− 127 sec (n = 4). Moreover, in data set [4] (baseline vs 15 minutes after drug treatment), the “blood clotting time post-treatment (in words)” value is recorded as “significantly longer post-treatment than at baseline”. Moreover, in the data set with ERK1/2, the “ERK1/2 activation (phosphorylation) in left ventricle (in words)” value is “not different than saline treatment”. Further, the “tissue and plasma FGF distribution (in words)” value in data set [5] (no FGF+heparin co-treatment) is reported as “no difference in saline or heparin treatment with regard to FGF1 levels”.
Regarding “bisindolylmaleimide [GF109203X, reference compound]”, the “effect of PKC inhibitor on FGF2-induced cardioprotection (infarct size)” value in data set [2] (rat, 1 mg/kg i.v., with FGF2, 1 mg/kg) was “abrogates the FGF2-induced cardioprotective effects of reduced myocardial infarct size; also recorded: abolished FGF2-induced cardioprotection”.
With “native FGF1 (recombinant human fibroblast growth factor 1) (from UniProt P05230 16-155) (ligand)”, in [6], the Kd stood at 704 nM.
